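Five concentrations, 48 hours, 96-well plates. Here, GI50 denotes the concentration required for 50% inhibition of growth. TGI is the concentration that stops growth completely.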
Tests used:
Test in all cases: NCI tumour cell line growth inhibition, 48 h
OVCAR-5 ovarian = test system: OVCAR-5 ovarian
KM20L2 colon = test system: KM20L2 colon
COLO 205 colon = test system: COLO 205 colon
MCF7 breast = test system: MCF7 breast
MDA-MB-435 = test system: MDA-MB-435
LXFL 529 NSCLC = test system: LXFL 529 NSCLC
M19-MEL melanoma = test system: M19-MEL melanoma
DMS 273 small cell lung = test system: DMS 273 small cell lung
SNB-78 CNS = test system: SNB-78 CNS

SMILES: O=C([CH-]C(=O)c1ccccc1)c1ccccc1.O=C([CH-]C(=O)c1ccccc1)c1ccccc1.O=C([CH-]C(=O)c1ccccc1)c1ccccc1.[Cl-].[Zr+4]
- GI50 (OVCAR-5 ovarian): 53.8 µM
- TGI (OVCAR-5 ovarian): > 100 µM
- GI50 (KM20L2 colon): 33.2 µM
- TGI (KM20L2 colon): > 100 µM
- GI50 (COLO 205 colon): 25.7 µM
- TGI (COLO 205 colon): 78 µM

SMILES: Cc1noc(C)c1-c1cnc2c(-c3ccc(C(=O)O)cc3)cn([C@@H](C)c3ccccn3)c2c1
- GI50 (MCF7 breast): 0.186 µM
- TGI (MCF7 breast): > 100 µM
- GI50 (OVCAR-5 ovarian): 4.22 µM
- TGI (OVCAR-5 ovarian): > 100 µM
- GI50 (MDA-MB-435): 0.603 µM
- TGI (MDA-MB-435): > 100 µM
- GI50 (COLO 205 colon): 0.413 µM
- TGI (COLO 205 colon): > 100 µM

SMILES: Oc1c(O)c(Cl)c(Cl)c(Cl)c1Cl
- GI50 (MCF7 breast): 3.25 µM
- TGI (MCF7 breast): 16.2 µM
- GI50 (OVCAR-5 ovarian): 9.62 µM
- TGI (OVCAR-5 ovarian): 42.5 µM
- GI50 (MDA-MB-435): 3.42 µM
- TGI (MDA-MB-435): 18.1 µM
- GI50 (COLO 205 colon): 12.5 µM
- TGI (COLO 205 colon): 33.7 µM

SMILES: COc1cc(NC(C)CCCNC(C)C)c2ncccc2c1OC (stereo unspecified)
- GI50 (MCF7 breast): 29.6 µM
- TGI (MCF7 breast): > 100 µM
- GI50 (OVCAR-5 ovarian): > 100 µM
- TGI (OVCAR-5 ovarian): > 100 µM
- GI50 (MDA-MB-435): 54.6 µM
- TGI (MDA-MB-435): > 100 µM
- GI50 (COLO 205 colon): 14 µM
- TGI (COLO 205 colon): 39.1 µM

SMILES: CCN(CC)c1nc(NC2CCCCC2)c2nc(N(CC)CC)nc(NC3CCCCC3)c2n1
- TGI (MCF7 breast): > 100 µM
- TGI (OVCAR-5 ovarian): > 100 µM
- TGI (MDA-MB-435): > 100 µM

SMILES: O=C(O)Cn1ccc2ccccc21
- GI50 (MCF7 breast): > 100 µM
- TGI (MCF7 breast): > 100 µM
- GI50 (OVCAR-5 ovarian): > 100 µM
- TGI (OVCAR-5 ovarian): > 100 µM
- GI50 (MDA-MB-435): > 100 µM
- TGI (MDA-MB-435): > 100 µM
- GI50 (COLO 205 colon): > 100 µM
- TGI (COLO 205 colon): > 100 µM

SMILES: Nc1ccccc1C(=O)NC(=O)Nc1ccc(Oc2ncc(Br)cn2)c(Cl)c1
- TGI (MCF7 breast): 30.9 µM
- TGI (LXFL 529 NSCLC): 11.9 µM
- TGI (OVCAR-5 ovarian): 51.7 µM
- TGI (M19-MEL melanoma): 13.1 µM
- TGI (MDA-MB-435): 0.155 µM
- GI50 (DMS 273 small cell lung): 0.00485 µM
- TGI (SNB-78 CNS): 26.4 µM
- TGI (COLO 205 colon): 0.421 µM

SMILES: S=C(CSc1ccccc1)Nc1cccc2ccccc12
- TGI (MCF7 breast): > 100 µM
- TGI (OVCAR-5 ovarian): > 100 µM
- TGI (MDA-MB-435): > 100 µM
- TGI (COLO 205 colon): 32 µM

SMILES: CCOc1ccc(C(C)=O)cc1NC(=O)c1cccc(-c2nnn(CC)n2)c1
- GI50 (MCF7 breast): 0.333 µM
- TGI (MCF7 breast): > 100 µM
- GI50 (OVCAR-5 ovarian): 9.34 µM
- TGI (OVCAR-5 ovarian): > 100 µM
- GI50 (MDA-MB-435): 0.308 µM
- TGI (MDA-MB-435): 2.34 µM
- GI50 (COLO 205 colon): 0.395 µM
- TGI (COLO 205 colon): 1.93 µM

SMILES: C=C(CN1c2ccccc2Sc2ccccc21)c1ccc(C(=O)Nc2ccccc2N)cc1
- GI50 (MCF7 breast): > 42 µM
- TGI (MCF7 breast): > 100 µM
- GI50 (OVCAR-5 ovarian): > 100 µM
- TGI (OVCAR-5 ovarian): > 100 µM
- GI50 (MDA-MB-435): 3.87 µM
- TGI (MDA-MB-435): 25 µM
- GI50 (COLO 205 colon): 34.7 µM
- TGI (COLO 205 colon): > 100 µM

SMILES: Cc1c(C)c2c(c(C)c1OCC(=O)O)CC[C@@](C)(CCC[C@@H](C)CCC[C@@H](C)CCCC(C)C)O2
- GI50 (MCF7 breast): 74.6 µM
- TGI (MCF7 breast): 199 µM
- GI50 (OVCAR-5 ovarian): 86.3 µM
- TGI (OVCAR-5 ovarian): 155 µM
- GI50 (MDA-MB-435): 72.6 µM
- TGI (MDA-MB-435): 142 µM
- GI50 (COLO 205 colon): 53.4 µM
- TGI (COLO 205 colon): 144 µM

SMILES: O=C(Oc1ccccc1)C(Br)C(Br)c1ccccc1 (stereo unspecified)
- GI50 (MCF7 breast): 1.68 µM
- TGI (MCF7 breast): 11.4 µM
- GI50 (OVCAR-5 ovarian): 7 µM
- TGI (OVCAR-5 ovarian): 20.8 µM
- GI50 (MDA-MB-435): 1.62 µM
- TGI (MDA-MB-435): 3.09 µM
- GI50 (COLO 205 colon): 1.98 µM
- TGI (COLO 205 colon): 3.83 µM

SMILES: C=Cc1c(C)c2cc3[nH]c(cc4nc(cc5nc(cc1[nH]2)C(C)=C5CCC(=O)N(CC)CC)C(CCC(=O)N(CC)CC)=C4C)c(C)c3C=C
- TGI (LXFL 529 NSCLC): > 100 µM
- TGI (OVCAR-5 ovarian): > 100 µM
- TGI (KM20L2 colon): > 100 µM
- TGI (M19-MEL melanoma): > 100 µM
- TGI (SNB-78 CNS): > 100 µM

SMILES: O=C(/C=C\n1cnc(-c2cc(C(F)(F)F)cc(C(F)(F)F)c2)n1)N1CC(F)(F)C1
- GI50 (MCF7 breast): 0.212 µM
- TGI (MCF7 breast): 1.64 µM
- GI50 (OVCAR-5 ovarian): 0.671 µM
- TGI (OVCAR-5 ovarian): > 25 µM
- GI50 (MDA-MB-435): 1.4 µM
- TGI (MDA-MB-435): 6.38 µM
- GI50 (COLO 205 colon): 0.351 µM
- TGI (COLO 205 colon): 4.14 µM

SMILES: Cn1cc(C2=C(c3ccccc3C(F)(F)F)C(=O)NC2=O)c2ccccc21
- GI50 (MCF7 breast): 7.47 µM
- TGI (MCF7 breast): > 25 µM
- GI50 (OVCAR-5 ovarian): > 24.1 µM
- TGI (OVCAR-5 ovarian): > 25 µM
- GI50 (MDA-MB-435): 9.89 µM
- TGI (MDA-MB-435): > 25 µM
- GI50 (COLO 205 colon): 6.42 µM
- TGI (COLO 205 colon): > 25 µM

SMILES: COc1ccc2[nH]c(C(=O)OCc3ccc4cccc(O)c4n3)cc2c1
- GI50 (MCF7 breast): 0.723 µM
- TGI (MCF7 breast): 2.79 µM
- GI50 (OVCAR-5 ovarian): 1.45 µM
- TGI (OVCAR-5 ovarian): 2.96 µM
- GI50 (MDA-MB-435): 1.52 µM
- TGI (MDA-MB-435): 3.13 µM
- GI50 (COLO 205 colon): 1.29 µM
- TGI (COLO 205 colon): 2.91 µM

SMILES: OC(COc1ccccc1)CN1CCCCC1 (stereo unspecified)
- TGI (MCF7 breast): > 100 µM
- TGI (OVCAR-5 ovarian): > 100 µM
- TGI (MDA-MB-435): > 100 µM
- TGI (COLO 205 colon): > 100 µM

SMILES: O=C(Nc1ccc2c(c1)OCCO2)C(=O)c1c[nH]c2ccccc12
- GI50 (MCF7 breast): 1.31 µM
- TGI (MCF7 breast): > 100 µM
- GI50 (OVCAR-5 ovarian): 3.47 µM
- TGI (OVCAR-5 ovarian): > 100 µM
- GI50 (MDA-MB-435): 0.166 µM
- TGI (MDA-MB-435): 0.531 µM
- GI50 (COLO 205 colon): 2.72 µM
- TGI (COLO 205 colon): > 100 µM

SMILES: COc1cc(-c2nccc3cc4c(cc23)OCO4)cc(OC)c1OC
- GI50 (MCF7 breast): 2.88 µM
- TGI (MCF7 breast): > 100 µM
- GI50 (OVCAR-5 ovarian): 24.9 µM
- TGI (OVCAR-5 ovarian): > 100 µM
- GI50 (MDA-MB-435): 0.411 µM
- TGI (MDA-MB-435): 3.55 µM
- GI50 (COLO 205 colon): > 100 µM
- TGI (COLO 205 colon): > 100 µM

SMILES: COc1cc(Nc2ncnc(Nc3ccc4c(n3)NC(=O)C(C)(C)O4)n2)cc(OC)c1OC
- GI50 (MCF7 breast): 1.32 µM
- TGI (MCF7 breast): > 100 µM
- GI50 (OVCAR-5 ovarian): 0.602 µM
- TGI (OVCAR-5 ovarian): > 100 µM
- GI50 (MDA-MB-435): 2.09 µM
- TGI (MDA-MB-435): > 100 µM
- GI50 (COLO 205 colon): 0.829 µM
- TGI (COLO 205 colon): > 100 µM

SMILES: CCCCN1C(=O)/C(=c2\sc3n(c2=O)C2C(NN=3)N(CC)C(=O)N2CC)c2ccccc21 (stereo unspecified)
- GI50 (MDA-MB-435): 0.255 µM
- TGI (MDA-MB-435): 0.655 µM

SMILES: Cn1cncc1-c1c(F)cncc1NC(=O)c1c(N)nn2cc(F)cnc12
- GI50 (MCF7 breast): 0.0515 µM
- TGI (MCF7 breast): 56.4 µM
- GI50 (OVCAR-5 ovarian): 13 µM
- TGI (OVCAR-5 ovarian): > 100 µM
- GI50 (MDA-MB-435): 0.933 µM
- TGI (MDA-MB-435): > 100 µM
- GI50 (COLO 205 colon): 5.68 µM
- TGI (COLO 205 colon): > 100 µM

SMILES: NC(CSC(c1ccccc1)(c1ccccc1)c1ccc(F)cc1)C(=O)O (stereo unspecified)
- GI50 (MCF7 breast): 0.344 µM
- TGI (MCF7 breast): > 100 µM
- GI50 (OVCAR-5 ovarian): 4.18 µM
- TGI (OVCAR-5 ovarian): > 76.5 µM
- GI50 (MDA-MB-435): 0.251 µM
- TGI (MDA-MB-435): 0.654 µM
- GI50 (COLO 205 colon): 0.231 µM
- TGI (COLO 205 colon): 0.667 µM

SMILES: COc1ccc(-c2nsc3c2NC(=O)CC3c2cccc(Cl)c2)cc1 (stereo unspecified)
- GI50 (MCF7 breast): 0.809 µM
- TGI (MCF7 breast): > 100 µM
- GI50 (OVCAR-5 ovarian): 5.3 µM
- TGI (OVCAR-5 ovarian): > 100 µM
- GI50 (MDA-MB-435): 0.226 µM
- TGI (MDA-MB-435): 0.917 µM
- GI50 (COLO 205 colon): 0.771 µM
- TGI (COLO 205 colon): > 42.4 µM

SMILES: COc1ccc(-c2nn3ncccc3c2-c2ccnc(Nc3ccc4c(c3)OCCO4)n2)cc1
- GI50 (MCF7 breast): 13.8 µM
- TGI (MCF7 breast): > 25 µM
- GI50 (OVCAR-5 ovarian): 5.72 µM
- TGI (OVCAR-5 ovarian): > 25 µM
- GI50 (MDA-MB-435): 12.5 µM
- TGI (MDA-MB-435): > 25 µM
- GI50 (COLO 205 colon): 13.1 µM
- TGI (COLO 205 colon): > 25 µM
